According to patent US9700047B2, “Macrocyclic picolinamides as fungicides” (Dow AgroSciences LLC, priority 2014, dated 2017):
Where two headings read alike, the source gives them in different places.

Assays:
[1] = system: Rhyncosporium secalis; assay: Barley scald (RHYNSE) disease control on barley seedlings; assay type: in vivo; conditions: 100 ppm; 1 Day Protectant
Procedure: All fungicides were evaluated using the aforementioned method for their activity vs. all target diseases, unless stated otherwise. Wheat leaf blotch and brown rust activity were also evaluated using track spray applications, in which case the fungicides were formulated as EC formulations, containing 0.1% Trycol 5941 in the spray solutions. Barley seedlings (variety Harrington) were propagated in soil-less Metro mix, with each pot having 8 to 12 plants, and used in the test when first leaf was fully emerged. Test plants were inoculated by an aqueous spore suspension of Rhyncosporium secalis 24 hr after fungicide treatments. After inoculation the plants were kept in a dew room at 20° C. with 100% relative humidity for 48 hr. The plants were then transferred to a greenhouse set at 20° C. for disease to develop. Fungicide formulation, application and disease assessment on the sprayed leaves followed the procedures as described in the Example A.

[2] = system: Puccinia triticina; Synonym: Puccinia recondita f sp. tritici; assay: Wheat brown rust (PUCCRT) disease control on wheat seedlings; assay type: in vivo; conditions: for pest or weed control at 121.5 g/ha: Low Volume activity at 121.5 g/H; for pest or weed control at 100 ppm: High Volume activity at 100 ppm
Procedure: All fungicides were evaluated using the aforementioned method for their activity vs. all target diseases, unless stated otherwise. Wheat leaf blotch and brown rust activity were also evaluated using track spray applications, in which case the fungicides were formulated as EC formulations, containing 0.1% Trycol 5941 in the spray solutions. Wheat plants (variety Yuma) were grown from seed in a greenhouse in 50% mineral soil/50% soil-less Metro mix until the first leaf was fully emerged, with 7-10 seedlings per pot. These plants were inoculated with an aqueous spore suspension of Puccinia triticina either prior to or after fungicide treatments. […] The plants were then transferred to a greenhouse set at 24° C. for disease to develop. Fungicide formulation, application and disease assessment followed the procedures as described in the Example A.

[3] = 24 h, 1 Day Protectant, read-out: PUCCRT 1DP % Control rating
[4] = 72 h, 3 Day Curative, read-out: PUCCRT 3DC % Control rating

Row | Compound | RHYNSE 1DP Disease Control rating [1] | pest or weed control at 121.5 g/ha [2, 3] [%] | pest or weed control at 121.5 g/ha [2, 4] [%] | pest or weed control at 100 ppm [2, 3] [%] | pest or weed control at 100 ppm [2, 4] [%]
1 | CCCC[C@@H]1[C@@H](Cc2ccc(C(F)(F)F)cc2)CCC[C@H](NC(=O)c2nccc(OC)c2OCOC(C)=O)C(=O)O[C@H]1C [Compound 3] | B (≦70) | > 70 | < 70 | – | –
2 | COc1ccnc(C(=O)N[C@H]2CCC[C@H](CCCc3ccccc3)[C@@H](CCc3ccccc3)[C@H](C)OC2=O)c1O [Compound 85] | – | – | – | > 70 | < 70
3 | COc1ccnc(C(=O)N[C@H]2CCC[C@H](Cc3ccc(C(F)(F)F)cc3)[C@@H](Cc3ccc(F)cc3)[C@H](C)OC2=O)c1O [Compound 86] | – | – | – | > 70 | < 70
4 | COc1ccnc(C(=O)N[C@H]2CCC[C@H](CCC(C)C)[C@@H](C3CCCC3)[C@H](C)OC2=O)c1O [Compound 87] | – | – | – | > 70 | < 70
5 | COc1ccnc(C(=O)N[C@H]2CCC[C@H](Cc3ccccc3)[C@@H](CCC(C)C)[C@H](C)OC2=O)c1O [Compound 88] | – | – | – | > 70 | < 70
6 | COc1ccnc(C(=O)N[C@H]2CCC[C@H](Cc3ccccc3)[C@@H](c3ccccc3)[C@H](C)OC2=O)c1O [Compound 90] | – | – | – | > 70 | > 70
7 | CCC[C@H]1CCC[C@H](NC(=O)c2nccc(OC)c2O)C(=O)O[C@@H](C)[C@@H]1c1ccccc1 [Compound 91] | – | – | – | > 70 | < 70
8 | COc1ccnc(C(=O)N[C@H]2CCC[C@H](CCCc3ccccc3)[C@@H](CC(C)C)[C@H](C)OC2=O)c1O [Compound 92] | – | – | – | > 70 | < 70
9 | COc1ccnc(C(=O)N[C@H]2CCC[C@H](CCCc3ccccc3)[C@@H](Cc3ccc(OC(F)(F)F)cc3)[C@H](C)OC2=O)c1O [Compound 93] | – | – | – | < 70 | < 70
10 | COc1ccnc(C(=O)N[C@H]2CCC[C@H](CC3CC3)[C@@H](Cc3ccccc3)[C@H](C)OC2=O)c1O [Compound 94] | – | > 70 | < 70 | – | –
11 | COc1ccnc(C(=O)N[C@H]2CCC[C@H](Cc3ccccc3)[C@@H](Cc3ccc(F)cc3)[C@H](C)OC2=O)c1O [Compound 95] | – | > 70 | < 70 | – | –
12 | COc1ccnc(C(=O)N[C@H]2CCC[C@H](Cc3ccc(C(F)(F)F)cc3)[C@@H](Cc3ccc(OC(F)(F)F)cc3)[C@H](C)OC2=O)c1O [Compound 96] | – | – | – | < 70 | < 70
13 | COc1ccnc(C(=O)N[C@H]2CCC[C@H](Cc3ccccc3)[C@@H](Cc3ccc(OC(F)(F)F)cc3)[C@H](C)OC2=O)c1O [Compound 97] | – | – | – | > 70 | < 70
14 | COc1ccnc(C(=O)N[C@H]2CCC[C@H](CCCc3ccccc3)[C@@H](Cc3ccccc3)[C@H](C)OC2=O)c1O [Compound 98] | – | – | – | > 70 | < 70
